{"source": "paper PMC8782015", "about": "“Coumarin Derivatives Exert Anti-Lung Cancer Activity by Inhibition of Epithelial–Mesenchymal Transition and Migration in A549 Cells” (Pharmaceuticals, 2022)", "key": {"A549 cells [1]": {"system": "A549 cells", "experiment": "MTT cell viability assay on A549 cells", "assay_type": "cell-based, human", "conditions": "24 h; for cytotoxicity (A549 cells viability, in words): single concentration 12 µM", "method": "All the synthetic coumarins (7, 8a–f, 9a–g, 10, 11, 12a–c, 13a–c, 14–17) were first screened for their in vitro cytotoxic activity at a single concentration (12 µM) against NSCLC cell line (human lung adenocarcinoma A549) for 24 h, using the well-established 3-(4,5-dimethylthiazol-2-yl)-2,5-diphenyltetrazolium bromide (MTT) assay.\nThe effect of coumarin derivatives on cell viability was evaluated by the MTT assay at a single dose according to the NCI testing protocol or at different concentrations for IC50 determination. Coumarin derivatives were dissolved in dimethyl sulfoxide (DMSO) and then diluted with DMEM. Briefly, cells were plated in 96-well plates (2 × 10^4/well) and each coumarin derivative at 12 µM was added to the culture medium, and the cell cultures were continued for 24 h. Cisplatin (2.6 µM) was used as a reference drug. Thereafter, the medium was replaced with fresh DMEM containing 5 mg/mL MTT. Following an incubation period (4 h) in a humidified CO2 incubator at 37 °C and 5% CO2, the supernatant was removed, and dimethyl sulfoxide solution (DMSO, […]) was added to each cultured plate. After incubation at room temperature for 15 min, the absorbance of the solubilized MTT formazan product was spectrophotometrically measured at 540 nm. Three individual wells were assayed for each treatment, and the percentage viability relative to the control sample was determined as (absorbance of treated cells/absorbance of untreated cells) × 100%. Only the compound that reduced the viability by more than half the value of the control cells were screened in a range of concentration (10^−8 to 10^−3 M) with the A549, H2170, and NHI-3T3 cell lines. The concentration of 9f compound that reduced the viable cell number by 50% (CC50) was determined using a non-linear regression approach, and the mean value of CC50 for each cell type was calculated from triplicate.\nFigure 1 Effect of synthetic coumarin derivatives on cell viability. The viability of A549 cells was determined using the MTT assay after exposure at a single concentration (12 µM) of the compounds or cisplatin (2.6 µM) for 24 h. The percentage of inhibition was calculated considering the cells treated with medium (DMEM), which was considered as 100% of cell viability (dotted line). Bars represent the mean ± S.D. from three independent experiments.\n1.1. In vitro cytotoxicity assay of 9f compound on A549, H2170 and NIH3T3 cells\nIn order to determine the cytotoxic effect of 9f compound, the tumor cell lines A549 and H2170, and non-tumor cell line NHI-3T3 (1×10^5 per well) were seeded in the presence of the 9f compound concentration (1×10-3 to 1×10^-8 M) in 96-well microliter culture plate in a humidified CO2 (5%) incubator at 37 °C for 24h. Cell viabilities were measured using MTT assay as described in Materials and Methods Section. Three individual wells were assayed for each treatment and the percentage viability relative to the control sample was determined as (absorbance of treated cells/absorbance of untreated cells)×100%. A nonlinear regression analysis calculated using Prism 7.0 software (Graph- […]\n25.8 ± 1.7 µM to NHI-3T3 cells (Figure S1).\nFigure S1. Cytotoxicity assay (CC50) of increasing concentration of 9f compound on tumor cell lines (A549 and H2170) and non-tumor cell line (NHI-3T3) after 24 hours using MTT assay. All data were reported as the mean ± S.D. CC50 (M) values were calculated from the dose response curve using Prim 7 software.\n(1 picture or pasted object on this page, not shown here)"}, "H2170 cells": {"system": "H2170 cells", "experiment": "MTT cell viability assay (CC50) on H2170 cells", "assay_type": "cell-based", "conditions": "Homo sapiens, NCI-H2170, 24 h, mean ± S.D., read-out: CC50 (concentration that reduces the viable cell number by 50%)", "description": "(§1) Among these two compounds, 9f was the most promising, reducing the A549 cells viability to less than 20%. […] Distinct explanations might be used to sustain this fact, including biochemical and metabolic changes between cell lines. While normal cells follow a set of organized metabolic programs, cancer cells show intrinsic or acquired resistance to apoptosis and also a metabolic reprogramming in order to meet the increased energy demands.\n(§2) The effect of coumarin derivatives on cell viability was evaluated by the MTT assay at a single dose according to the NCI testing protocol or at different concentrations for IC50 determination. […] After incubation at room temperature for 15 min, the absorbance of the solubilized MTT formazan product was spectrophotometrically measured at 540 nm. Three individual wells were assayed for each treatment, and the percentage viability relative to the control sample was determined as (absorbance of treated cells/absorbance of untreated cells) × 100%. […]\nIn order to determine the cytotoxic effect of 9f compound, the tumor cell lines A549 and H2170, and non-tumor cell line NHI-3T3 (1×10^5 per well) were seeded in the presence of the 9f compound concentration (1×10-3 to 1×10^-8 M) in 96-well microliter culture plate in a humidified CO2 (5%) incubator at 37 °C for 24h. Cell viabilities were measured using MTT assay as described in Materials and Methods Section. […]"}, "[2]": {"experiment": "MTT cell viability assay (CC50) on NIH-3T3 cells", "assay_type": "cell-based", "conditions": "mouse, NIH-3T3 fibroblast cells (non-tumour), NIH-3T3 non-cancer cells, mean ± S.D., read-out: CC50 (concentration that reduces the viable cell number by 50%)", "description": "as §1\nA549, H2170, and normal mouse fibroblast (NIH-3T3) cell lines were obtained from the Rio de Janeiro Cell Bank (BCRJ). […]\nas §2\nFigure S1. […] All data were reported as the mean ± S.D. CC50 (M) values were calculated from the dose response curve using Prim 7 software. […]"}, "[3]": {"system": "IL-1β-stimulated A549 cells", "experiment": "IL-1β-induced EMT: cell morphology and F-actin (FITC-phalloidin) staining", "assay_type": "cell-based, human", "conditions": "7 µM, 1 ng/mL IL-1β, 24 h", "method": "(§3) For induction of the EMT process, A549 cells (1 × 10^5 per well) were seeded in 24-well culture plates and treated with 1 ng/mL IL-1β (Peprotech, Rocky Hill, NJ, USA) for 24 h. In the unstimulated cells, DMEM medium was added. Then, the morphological alteration of cells was observed under a microscope. This protocol for EMT induction is as reported in the previous literature. To evaluate the effects of coumarin derivative with respect to EMT induced by IL-1β, cells were pretreated with compound 9f at 7 µM, being this treatment also maintained during stimulation with IL-1β for 24 h.\nAfter 24 h, cells were fixed for 15 min at 4 °C with 4% paraformaldehyde in PBS. […] Cell morphology was determined using an inverted epifluorescence microscope (Nikon Eclipse 50i). Fluorescence quantification was done using ImageJ 1.47 software (NIH, Bethesda, MD, USA). Images were analyzed through the “Measure” menu, which allowed analyzing the fluorescence intensity signal per cell from original photomicrographs.\nFigure 2 Compound 9f inhibited IL-1β-induced EMT in vitro. […] Cells were photographed using phase-contrast microscopy (A–D) or fluorescence microscopy (E–H). […] Actin (green) was detected via immunofluorescence in formaldehyde-fixed cells with FITC-conjugated phalloidin (1:100). […] Magnification ×100 (insert, magnification ×200) for phase-contrast microscope and ×400 for fluorescence microscope."}, "vimentin in A549 cells": {"system": "vimentin in A549 cells", "experiment": "Vimentin expression by immunofluorescence and flow cytometry", "assay_type": "cell-based, human", "conditions": "7 µM, 24 h", "method": "as §3\nIn another set of experiments, the analysis for vimentin, a well-recognized marker for its selective expression and specific role in the mesenchymal state, was performed. […] Stained cells were analyzed by a flow cytometer (FACSCanto II, Becton Dickinson, San Jose, CA, USA) accompanied with the BD FACSDIVA™ software for data analysis. The cell-associated fluorescence of 5000 cells per sample was measured as mean fluorescence intensity (MFI) in the FL1 channel. The MFI values were corrected for unspecific staining by subtracting the fluorescence of cells unstained (negative control).\nFigure 3 Compound 9f downregulates the expression of mesenchymal cell marker vimentin in IL-1β-induced EMT. […] The mesenchymal markers vimentin was detected by immunofluorescence. […] Magnification ×400 for fluorescence microscope. […]"}, "A549 cells [4]": {"system": "A549 cells", "experiment": "In vitro scratch wound healing assay", "assay_type": "cell-based, human", "conditions": "7 µM, 24 h, IL-1β-stimulated A549 cells", "method": "To evaluate the effect of 9f on epithelial motility, we performed the scratch assay as described by Cardoso et al.. Cells were maintained in 24-well plates until they reached 90% confluency. Thereafter, a vertical stripe on the cell monolayer was made using a sterile pipette (200 μL) tip. The wells were washed with PBS to remove dead cells and debris, and then, 9f was added at a concentration of 7 µM. As a control, the cells were treated with cell culture medium. Photographs were captured by a digital camera connected to an inverted microscope (Olympus IX70) at 0 and 24 h after scratch. The migration gap area of the cells was measured by ImageJ software (https://imagej.nih.gov/ij/; accessed on 24 November 2020, Center for Information Technology, National Institute of Health, Bethesda, […], USA). Each measurement was repeated three times.\nFigure 4 The effect of 9f on the migration of A549 cells assayed by the wound-healing assay. Cells were treated with 9f at 7 µM, and images were captured to calculate the scratch closure. In (A), representative photomicrography images showing the cell migration toward the cell-free area after treatment with DMEM (control) or 9f and after 24 h. […] Values represent mean ± S.D. from three independent experiments. (+++) p < 0.001 compared with respective DMEM-treated cells and (***) p < 0.001 compared with IL-1β-stimulated cell vehicle-treated cells."}, "A549 cells [5]": {"system": "A549 cells", "conditions": "cited from earlier work"}}, "data": [{"smiles": "COc1ccccc1-c1ccc2oc(=O)ccc2c1", "note": "[Compound 9c]", "values": [{"measurement": "cytotoxicity (A549 cells viability, in words)", "setting": "A549 cells [1]", "result": "little or no cytotoxicity"}]}, {"smiles": "O=c1ccc2ccc(C#CCO)cc2o1", "note": "[Compound 12c]", "values": [{"measurement": "cytotoxicity (A549 cells viability, in words)", "setting": "A549 cells [1]", "result": "little or no cytotoxicity"}]}, {"smiles": "COc1ccccc1-c1ccc2ccc(=O)oc2c1", "note": "[Compound 8b]", "values": [{"measurement": "cytotoxicity (A549 cells viability, in words)", "setting": "A549 cells [1]", "result": "little or no cytotoxicity"}]}, {"smiles": "O=c1ccc2cc(-c3ccc(Cl)c(Cl)c3)ccc2o1", "note": "[Compound 9f]", "values": [{"measurement": "CC50", "setting": "A549 cells [1]; Homo sapiens, A549 cells, mean ± S.D., read-out: CC50 (concentration that reduces the viable cell number by 50%)", "result": "7.1 ± 0.8", "unit": "µM"}, {"measurement": "CC50", "setting": "H2170 cells", "result": "3.3 ± 0.5", "unit": "µM"}, {"measurement": "CC50 at 24 h", "setting": "[2]", "result": 25.8, "unit": "µM"}, {"measurement": "actin cytoskeleton reorganization", "setting": "[3]; FITC-labeled phalloidin", "result": "attenuated the changes in the actin cytoskeleton reorganization"}, {"measurement": "morphological changes (mesenchymal characteristics) induced by IL-1β", "setting": "[3]; phase-contrast microscopy", "result": "impairment in changes in its mesenchymal characteristics induced by IL-1β"}, {"measurement": "expression of mesenchymal marker vimentin", "setting": "vimentin in A549 cells; IL-1β-stimulated (1 ng/mL) A549 cells", "result": "significantly diminished"}, {"measurement": "levels of vimentin expression", "setting": "vimentin in A549 cells; cells unstimulated with IL-1β", "result": "did not change"}, {"measurement": "migration (wound closure)", "setting": "A549 cells [4]", "result": "significantly reduced"}]}, {"smiles": "O=c1ccc2ccc(CCc3ccccc3)cc2o1", "note": "[Compound 16]", "values": [{"measurement": "cytotoxicity (A549 cells viability, in words)", "setting": "A549 cells [1]", "result": "little or no cytotoxicity"}]}, {"smiles": "CC(=O)Oc1ccc2cc(-c3ccc(S(C)(=O)=O)cc3)c(=O)oc2c1OC(C)=O", "note": "[8-(acetyloxy)-3-(4-methanesulfonylphenyl)-2-oxo-2H-chromen-7-yl acetate]", "values": [{"measurement": "IC50", "setting": "A549 cells [5]", "result": 24.2, "unit": "µM"}]}, {"smiles": "CC(C)=CCC/C(C)=C/CC/C(C)=C/COc1ccc2ccc(=O)oc2c1", "note": "[umbelliprenin]", "values": [{"measurement": "IC50", "setting": "A549 cells [5]", "result": "52 ± 1.97", "unit": "µM"}]}, {"smiles": "O=c1ccc2cc(Cc3ccccc3)ccc2o1", "note": "[Compound 14]", "values": [{"measurement": "cytotoxicity (A549 cells viability, in words)", "setting": "A549 cells [1]", "result": "little or no cytotoxicity"}]}, {"smiles": "O=c1ccc2cc(C#CCCCc3ccccc3)ccc2o1", "note": "[Compound 13b]", "values": [{"measurement": "cytotoxicity (A549 cells viability, in words)", "setting": "A549 cells [1]", "result": "little or no cytotoxicity"}]}, {"smiles": "O=c1ccc2ccc(Cc3ccccc3)cc2o1", "note": "[Compound 15]", "values": [{"measurement": "cytotoxicity (A549 cells viability, in words)", "setting": "A549 cells [1]", "result": "little or no cytotoxicity"}]}]}
